Experimental data taken from patent US10040788B2, “1,3,4-thiadiazole compounds and their use in treating cancer” (AstraZeneca AB, priority 2014, dated 2018).

How the values were obtained:
GLS1 = GLS1 (Homo sapiens (Human), UniProt O94925); test: GLS Enzyme Potency Assay (Glutamate Oxidase/AmplexRed coupled assay); type: biochemical; conditions: 6His tagged GLS protein (amino acids 63-669); geometric mean where repeated
From the text: The following assays were used to measure the effects of the compounds of the present invention: a) GLS Enzyme Potency Assay; b) GLS Cell Potency Assay; c) GLS Cell Proliferation Assay; and d) Mouse Xenograft Model. During the description of the assays, generally: • i. The following abbreviations have been used: CO2=Carbon dioxide; DMEM=Dulbecco's Modified Eagle Medium; DMSO=Dimethyl sulphoxide; EDTA=Ethylenediaminetetraacetic acid; EGTA=Ethylene glycol tetraacetic acid; FCS=Foetal calf serum; h=Hour(s); NBS=Non-binding surface; SDS=Sodium dodecyl sulphate; r.t.=room temperature; TRIS=Tris(Hydroxymethyl)aminomethane. • ii. IC50 values were calculated using a smart fitting model in Genedata. […] Assay a): GLS Enzyme Potency Assay
A Glutamate Oxidase/AmplexRed coupled assay was used to measure the ability of compounds to bind to and inhibit the activity of GLS1 in vitro. […] GLS1 was diluted to 2× working concentration and incubated at r.t. to allow the tetrameric/dimeric forms to reach steady state. Assay measurements were performed in buffer comprising 50 mM TRIS pH 7.8, 100 mM NaPO4, pH 7.8, 0.001% v/v Tween20. […] DMSO concentration was maintained at 2% by back filling with DMSO solution. […] 3 μL of 100 mM glutamine diluted in assay buffer was then added and the reaction incubated at r.t. for 60 minutes. […] An artefact version of the assay where the 6His tagged GLS protein and glutamine were replaced with assay buffer was also used to rule out non specific effects on the assay components.

cellular GLS activity = cellular GLS activity (Homo sapiens (Human), UniProt O94925); test: GLS Cell Potency Assay (PC3 coupled assay measuring cellular glutamate depletion); type: cell-based; conditions: PC3 cells, 6 h incubation, cellular glutamate depletion; geometric mean where repeated; read-out: Assay b) GLS Cell Potency Assay IC50
Chain of cellular GLS activity (O94925 55-669): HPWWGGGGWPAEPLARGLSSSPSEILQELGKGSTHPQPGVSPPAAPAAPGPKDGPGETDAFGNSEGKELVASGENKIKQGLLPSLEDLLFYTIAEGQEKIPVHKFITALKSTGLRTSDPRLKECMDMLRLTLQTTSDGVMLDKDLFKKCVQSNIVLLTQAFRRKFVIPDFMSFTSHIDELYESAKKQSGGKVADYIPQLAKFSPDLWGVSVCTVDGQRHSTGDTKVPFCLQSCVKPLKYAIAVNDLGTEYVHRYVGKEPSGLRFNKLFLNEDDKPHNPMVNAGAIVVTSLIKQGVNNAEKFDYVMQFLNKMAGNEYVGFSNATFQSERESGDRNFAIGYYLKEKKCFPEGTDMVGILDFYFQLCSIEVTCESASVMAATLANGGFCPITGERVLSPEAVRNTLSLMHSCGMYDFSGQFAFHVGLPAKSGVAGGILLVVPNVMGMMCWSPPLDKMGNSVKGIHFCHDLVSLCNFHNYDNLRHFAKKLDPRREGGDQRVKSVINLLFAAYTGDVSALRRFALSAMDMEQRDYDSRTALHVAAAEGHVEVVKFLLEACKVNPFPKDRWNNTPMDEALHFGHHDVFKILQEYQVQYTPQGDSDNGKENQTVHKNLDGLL
From the text: (§1) The following assays were used to measure the effects of the compounds of the present invention: a) GLS Enzyme Potency Assay; b) GLS Cell Potency Assay; c) GLS Cell Proliferation Assay; and d) Mouse Xenograft Model. During the description of the assays, generally: • i. The following abbreviations have been used: CO2=Carbon dioxide; DMEM=Dulbecco's Modified Eagle Medium; DMSO=Dimethyl sulphoxide; EDTA=Ethylenediaminetetraacetic acid; EGTA=Ethylene glycol tetraacetic acid; FCS=Foetal calf serum; h=Hour(s); NBS=Non-binding surface; SDS=Sodium dodecyl sulphate; r.t.=room temperature; TRIS=Tris(Hydroxymethyl)aminomethane. • ii. […]
Compounds were assessed for their potential to inhibit cellular GLS activity by use of a PC3 coupled assay measuring cellular glutamate depletion. […] DMSO concentration was maintained at 0.3% by back filling with DMSO solution. PC3 cells were grown in phenol free DMEM, 10% dialyzed FCS, 2 mM glutamine and following dispersal by trypsinisation were plated at 5.6×10^3 cells per well in 40 μl of growth medium directly into the 384 well assay plates containing dispensed compound. After incubation for 6 h at 37° C., 5% CO2 growth media was aspirated and cells lysed in 15 μl of buffer containing 10 mM TRIS pH7.4, 100 mM NaCl, 1 mM EDTA, 1 mM EGTA, 1 mM NaF, 20 mM Na4P2O7, 2 mM Na3VO4, 1% Triton X-100, 10% glycerol, 0.1% SDS and 0.5% deoxycholate.

NCI-H1703 cells = test: GLS Cell Proliferation Assay (NCI-H1703); type: cell-based, human; conditions: Homo sapiens, 120 h; NCI-H1703 cells, 5 days incubation; geometric mean where repeated; read-out: Assay c) GLS Cell Proliferation Assay
From the text: as §1
The ability of compounds to inhibit cell growth was measured using a 384 well plate NCI-H1703 cell proliferation assay. NCI-H1703 cells were grown in phenol red free RPMI1640, 10% FCS and 2 mM glutamine and seeded at a density of 750 cells per well in 40 μl of growth medium into clear-bottom 384 well assay plates (Corning product code 3712) and incubated for 24 h at 37° C., 5% CO2. […] DMSO concentration was maintained at 0.3% by back filling with DMSO solution. Plates were incubated for 5 days at 37° C., 5% CO2, Sytox Green and Saponin added to final concentration of 2 μM and 0.25% respectively and incubated for 6 h prior to analysis. Plates were read on an Acumen eX3 (TTP Labtech) using 488 nm excitation and FITC filter set (500-530 nm) for emission. IC50 values were calculated by curve fitting to max inhibition of day zero growth using GeneData software analysis.

Chain of GLS1 (O94925 63-669): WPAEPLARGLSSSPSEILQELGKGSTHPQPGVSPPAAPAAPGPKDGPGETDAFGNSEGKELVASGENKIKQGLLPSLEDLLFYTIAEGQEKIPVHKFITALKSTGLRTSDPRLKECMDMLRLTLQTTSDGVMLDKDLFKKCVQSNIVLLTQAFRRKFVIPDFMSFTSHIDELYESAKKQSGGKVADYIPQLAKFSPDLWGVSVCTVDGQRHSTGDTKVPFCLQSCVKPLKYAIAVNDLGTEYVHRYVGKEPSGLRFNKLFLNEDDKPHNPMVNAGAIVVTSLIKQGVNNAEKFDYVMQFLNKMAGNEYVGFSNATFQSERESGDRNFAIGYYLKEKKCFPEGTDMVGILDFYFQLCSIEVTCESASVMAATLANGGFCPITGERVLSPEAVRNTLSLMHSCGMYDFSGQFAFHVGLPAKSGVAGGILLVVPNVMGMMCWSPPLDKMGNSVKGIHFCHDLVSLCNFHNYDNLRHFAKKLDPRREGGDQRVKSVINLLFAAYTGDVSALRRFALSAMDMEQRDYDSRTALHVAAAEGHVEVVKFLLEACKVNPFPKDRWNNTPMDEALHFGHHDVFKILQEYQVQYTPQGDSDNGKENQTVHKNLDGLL

| Compound | IC50 (GLS1) [nM] | IC50 (cellular GLS activity) [nM] | IC50 (NCI-H1703 cells) [nM] |
| --- | --- | --- | --- |
| CCO[C@H](C(=O)Nc1nnc(N[C@@H]2CCN(c3cccnn3)C2)s1)c1ccc(F)cc1 [Example 13(a), (2S)-2-Ethoxy-2-(4-fluorophenyl)-N-[5-[[(3R)-1-pyridazin-3-ylpyrrolidin-3-yl]amino]-1,3,4-thiadiazol-2-yl]acetamide] | 27 | 0.96 | 18.3 |
| COc1cccc([C@@H](OC)C(=O)Nc2nnc(N[C@@H]3CCN(c4cccnn4)C3)s2)c1 [Example 5(b), (2R)-2-Methoxy-2-(3-methoxyphenyl)-N-[5-[[(3R)-1-pyridazin-3-ylpyrrolidin-3-yl]amino]-1,3,4-thiadiazol-2-yl]acetamide] | 87.9 | 5.3 | 53.5 |
| COc1cccc([C@H](OC)C(=O)Nc2nnc(N[C@@H]3CCN(c4cccnn4)C3)s2)c1 [Example 5(a), (2S)-2-Methoxy-2-(3-methoxyphenyl)-N-[5-[[(3R)-1-pyridazin-3-ylpyrrolidin-3-yl]amino]-1,3,4-thiadiazol-2-yl]acetamide] | 21.5 | 0.19 | 3.38 |
| CCO[C@@H](C(=O)Nc1nnc(N[C@@H]2CCN(c3nccnn3)C2)s1)c1cccc(OC)c1 [27(b), (2R)-2-ethoxy-2-(3-methoxyphenyl)-N-[5-[[(3R)-1-(1,2,4-triazin-3-yl)pyrrolidin-3-yl]amino]-1,3,4-thiadiazol-2-yl]acetamide] | 844 | 19.5 | 337 |
| CCO[C@@H](C(=O)Nc1nnc(N[C@@H]2CCN(c3nccnn3)C2)s1)c1ccc(OC)cc1 [29(b), (2R)-2-ethoxy-2-(4-methoxyphenyl)-N-[5-[[(3R)-1-(1,2,4-triazin-3-yl)pyrrolidin-3-yl]amino]-1,3,4-thiadiazol-2-yl]acetamide] | 1370 | 134 | 1960 |
| CCO[C@H](C(=O)Nc1nnc(N[C@@H]2CCN(c3nccnn3)C2)s1)c1ccc(OC)cc1 [29(a), (2S)-2-ethoxy-2-(4-methoxyphenyl)-N-[5-[[(3R)-1-(1,2,4-triazin-3-yl)pyrrolidin-3-yl]amino]-1,3,4-thiadiazol-2-yl]acetamide] | 108 | 5.42 | 125 |
| CCO[C@H](C(=O)Nc1nnc(N[C@@H]2CCN(c3nccnn3)C2)s1)c1cccc(OC)c1 [27(a), (2S)-2-ethoxy-2-(3-methoxyphenyl)-N-[5-[[(3R)-1-(1,2,4-triazin-3-yl)pyrrolidin-3-yl]amino]-1,3,4-thiadiazol-2-yl]acetamide] | 50.8 | 2.23 | 11.7 |
| CO[C@@H](C(=O)Nc1nnc(N[C@@H]2CCN(c3nccnn3)C2)s1)c1cccc(OC(F)F)c1 [Example 6(b), (2R)-2-[3-(Difluoromethoxy)phenyl]-2-methoxy-N-[5-[[(3R)-1-(1,2,4-triazin-3-yl)pyrrolidin-3-yl]amino]-1,3,4-thiadiazol-2-yl]acetamide] | 519 | 37 | 81.7 |
| CO[C@H](C(=O)Nc1nnc(N[C@@H]2CCN(c3cncnn3)C2)s1)c1ccccc1 [Example 3, (2S)-2-Methoxy-2-phenyl-N-[5-[[(3R)-1-(1,2,4-triazin-6-yl)pyrrolidin-3-yl]amino]-1,3,4-thiadiazol-2-yl]acetamide] | 29 | 0.39 | 3.24 |
| CO[C@@H](C(=O)Nc1nnc(N[C@@H]2CCN(c3cccnn3)C2)s1)c1cccc(OC(F)(F)F)c1 [Example 9(b), (2R)-2-Methoxy-N-[5-[[(3R)-1-pyridazin-3-ylpyrrolidin-3-yl]amino]-1,3,4-thiadiazol-2-yl]-2-[3-(trifluoromethoxy)phenyl]acetamide] | 32.9 | 2.3 | 4.4 |
| CCO[C@@H](C(=O)Nc1nnc(N[C@@H]2CCN(c3nccnn3)C2)s1)c1ccccc1 [34(b), (2R)-2-ethoxy-2-phenyl-N-[5-[[(3R)-1-(1,2,4-triazin-3-yl)pyrrolidin-3-yl]amino]-1,3,4-thiadiazol-2-yl]acetamide] | 1480 | 168 | 2900 |

Now from value to compound:

| IC50 (GLS1) [nM] | IC50 (cellular GLS activity) [nM] | IC50 (NCI-H1703 cells) [nM] | Compound |
| --- | --- | --- | --- |
| 2460 | 300 | 2960 | COc1cc([C@H](OC)C(=O)Nc2nnc(N[C@@H]3CCN(c4nccnn4)C3)s2)ccc1F [32(a), (2S)-2-(4-fluoro-3-methoxy-phenyl)-2-methoxy-N-[5-[[(3R)-1-(1,2,4-triazin-3-yl)pyrrolidin-3-yl]amino]-1,3,4-thiadiazol-2-yl]acetamide] |
| 35.4 | 1.81 | 68.5 | COc1ccc([C@H](OC)C(=O)Nc2nnc(N[C@@H]3CCN(c4cccnn4)C3)s2)cc1OC [25(a), (2S)-2-(3,4-dimethoxyphenyl)-2-methoxy-N-[5-[[(3R)-1-pyridazin-3-ylpyrrolidin-3-yl]amino]-1,3,4-thiadiazol-2-yl]acetamide] |
| 46.9 | 0.35 | 1.78 | COc1cccc([C@@H](OC)C(=O)Nc2nnc(N[C@@H]3CCN(c4cncnn4)C3)s2)c1 [21(b), (2R)-2-methoxy-2-(3-methoxyphenyl)-N-[5-[[(3R)-1-(1,2,4-triazin-6-yl)pyrrolidin-3-yl]amino]-1,3,4-thiadiazol-2-yl]acetamide] |
| 135 | 56.1 | 630 | COc1ccc([C@@H](OC)C(=O)Nc2nnc(N[C@@H]3CCN(c4cccnn4)C3)s2)cc1OC [25(b), (2R)-2-(3,4-dimethoxyphenyl)-2-methoxy-N-[5-[[(3R)-1-pyridazin-3-ylpyrrolidin-3-yl]amino]-1,3,4-thiadiazol-2-yl]acetamide] |
| 74.7 | 4.58 | 118 | COc1ccc([C@H](OC)C(=O)Nc2nnc(N[C@@H]3CCN(c4nccnn4)C3)s2)cc1 [Example 24, (2S)-2-methoxy-2-(4-methoxyphenyl)-N-[5-[[(3R)-1-(1,2,4-triazin-3-yl)pyrrolidin-3-yl]amino]-1,3,4-thiadiazol-2-yl]acetamide] |
| 25.5 | 0.78 | 15.1 | COc1cc([C@H](OC)C(=O)Nc2nnc(N[C@@H]3CCN(c4cccnn4)C3)s2)ccc1F [Example 14(a), (2S)-2-(4-Fluoro-3-methoxy-phenyl)-2-methoxy-N-[5-[[(3R)-1-pyridazin-3-ylpyrrolidin-3-yl]amino]-1,3,4-thiadiazol-2-yl]acetamide] |
| 168 | 65 | 518 | COc1cc([C@@H](OC)C(=O)Nc2nnc(N[C@@H]3CCN(c4cccnn4)C3)s2)ccc1F [Example 14(b), (2R)-2-(4-Fluoro-3-methoxy-phenyl)-2-methoxy-N-[5-[[(3R)-1-pyridazin-3-ylpyrrolidin-3-yl]amino]-1,3,4-thiadiazol-2-yl]acetamide] |
